Each compound was assayed against T1, PPARδ (Homo sapiens, UniProt Q03181) (assay: Transactivation assay (PPARδ GAL4 assay) in transiently transfected HEK293 cells). Settings: luciferase reporter, Table 1.
T1 construct: fused to amino acids 147-441 of PPARδ downstream of CMV promoter; expressed in transfected cells; host or cells: HEK293 cells, transiently transfected with pFACMV-PPARδ using Fugene
T1 sequence (Q03181 147-441): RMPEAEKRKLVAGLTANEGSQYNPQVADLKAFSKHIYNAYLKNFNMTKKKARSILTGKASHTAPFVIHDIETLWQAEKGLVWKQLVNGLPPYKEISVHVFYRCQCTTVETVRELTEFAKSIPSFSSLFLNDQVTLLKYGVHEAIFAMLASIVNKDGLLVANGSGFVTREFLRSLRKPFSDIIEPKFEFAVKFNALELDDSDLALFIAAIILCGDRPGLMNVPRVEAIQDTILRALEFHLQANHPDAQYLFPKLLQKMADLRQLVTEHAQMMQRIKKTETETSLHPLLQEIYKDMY
Format: cell-based
Summary of the method: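 HEK293 cells transiently co-transfected with GAL4 DBD (aa 1-147)–PPARδ (aa 147-441) fusion and 5×GAL4-luciferase reporter, then exposed 24 h to compound (final 0-30 μM) in OptiMEM at 37° C. Luminescence read; activity as percent of GW501516 control, EC50 from sigmoidal dose-response fit.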

| EC50 [nM] | Compound |
| --- | --- |
| < 100 | CCc1cc(C(=O)c2ccc(OC(F)(F)F)cc2)c(NC(=O)c2ccc(OCC(=O)O)cc2)s1 [Example 99, {4-[5-Ethyl-3-(4-trifluoromethoxy-benzoyl)-thiophen-2-ylcarbamoyl]-phenoxy}-acetic acid] |
| 100 to 1000 | CCc1cc(C(=O)c2cccc(-c3ccc(F)cc3)c2)c(NC(=O)CNC(C)(C)C(=O)O)s1 [Example 85, 2-({[5-Ethyl-3-(4′-fluoro-biphenyl-3-carbonyl)-thiophen-2-ylcarbamoyl]-methyl}-amino)-2-methyl-propionic acid] |
| < 100 | CCc1cc(C(=O)c2ccc(OC(F)(F)F)cc2)c(NC(=O)CSCC(=O)O)s1 [Example 1, {[5-Ethyl-3-(4-trifluoromethoxy-benzoyl)-thiophen-2-ylcarbamoyl]-methylsulfanyl}-acetic acid] |
| < 100 | CCc1cc(C(=O)c2ccc(OC(F)(F)F)cc2)c(NC(=O)CSC(C)(C)C(=O)O)s1 [Example 2, 2-{[5-Ethyl-3-(4-trifluoromethoxy-benzoyl)-thiophen-2-ylcarbamoyl]-methylsulfanyl}-2-methyl-propionic acid] |
| 1000 to 30000 | CCc1cc(C(=O)c2ccc(-c3cnn(C)c3)cc2)c(NC(=O)CSCC(=O)O)s1 [Example 42, ({5-Ethyl-3-[4-(1-methyl-1H-pyrazol-4-yl)-benzoyl]-thiophen-2-ylcarbamoyl}-methylsulfanyl)-acetic acid] |
| < 100 | CCc1cc(C(=O)c2ccc(OC(F)(F)F)cc2)c(NC(=O)CN[C@@H](C(=O)O)C(C)C)s1 (single isomer, unassigned) [Example 75, 2-({[5-Ethyl-3-(4-trifluoromethoxy-benzoyl)-thiophen-2-ylcarbamoyl]-methyl}-amino)-3-methyl-butyric acid] |
| 100 to 1000 | CCc1cc(C(=O)c2ccc(OC(C)C)nc2)c(NC(=O)CSCC(=O)O)s1 [Example 58, {[5-Ethyl-3-(6-isopropoxy-pyridine-3-carbonyl)-thiophen-2-ylcarbamoyl]-methylsulfanyl}-acetic acid] |
| 100 to 1000 | CCc1cc(C(=O)c2ccc(OC)cc2)c(NC(=O)CSc2ccc(OC(C)(C)C(=O)O)cc2)s1 [Example 92, 2-(4-{[5-Ethyl-3-(4-methoxy-benzoyl)-thiophen-2-ylcarbamoyl]-methylsulfanyl}-phenoxy)-2-methyl-propionic acid] |
| 1000 to 30000 | CCc1cc(C(=O)c2ccc(Oc3ccccc3)nc2)c(NC(=O)CSCC(=O)O)s1 [Example 60, {[5-Ethyl-3-(6-phenoxy-pyridine-3-carbonyl)-thiophen-2-ylcarbamoyl]-methylsulfanyl}-acetic acid] |
| 1000 to 30000 | CCc1cc(C(=O)c2ccccc2)c(NC(=O)CC2(CC(=O)O)CCCC2)s1 [Example 17, {1-[(3-Benzoyl-5-ethyl-thiophen-2-ylcarbamoyl)-methyl]-cyclopentyl}-acetic acid] |
| < 100 | CCc1cc(C(=O)c2ccc(-c3ccccc3)cc2)c(NC(=O)CSCC(=O)O)s1 [Example 36, {[3-(Biphenyl-4-carbonyl)-5-ethyl-thiophen-2-ylcarbamoyl]-methylsulfanyl}-acetic acid] |
| < 100 | CCc1cc(C(=O)c2ccc(-c3ccc(OC(F)(F)F)cc3)cc2)c(NC(=O)CSCC(=O)O)s1 [Example 39, {[5-Ethyl-3-(4′-trifluoromethoxy-biphenyl-4-carbonyl)-thiophen-2-ylcarbamoyl]-methylsulfanyl}-acetic acid] |
| 100 to 1000 | CCc1cc(C(=O)c2ccc(OC(F)(F)F)cc2)c(NC(=O)c2ccc(SCC(=O)O)cc2)s1 [Example 103, {4-[5-Ethyl-3-(4-trifluoromethoxy-benzoyl)-thiophen-2-ylcarbamoyl]-phenylsulfanyl}-acetic acid] |
| 100 to 1000 | CCc1cc(C(=O)c2cccc(-c3ccc(OC(F)(F)F)cc3)c2)c(NC(=O)CNC(C)(C)C(=O)O)s1 [Example 84, 2-({[5-Ethyl-3-(4′-trifluoromethoxy-biphenyl-3-carbonyl)-thiophen-2-ylcarbamoyl]-methyl}-amino)-2-methyl-propionic acid] |

Same assay, conditions: luciferase reporter, Table 2

| EC50 [nM] | Compound |
| --- | --- |
| 100 to 1000 | CCc1cc(C(=O)c2nc3ccc(OC(F)(F)F)cc3s2)c(NC(=O)CSCC(=O)O)s1 [Example 153, {[5-Ethyl-3-(6-trifluoromethoxy-benzothiazole-2-carbonyl)-thiophen-2-ylcarbamoyl]-methylsulfanyl}-acetic acid] |
| < 100 | Cc1cc(C(=O)c2ccc(OC(F)(F)F)cc2)c(NC(=O)CSc2ccc(OCC(=O)O)cc2)s1 [Example 141, (4-{[5-Methyl-3-(4-trifluoromethoxy-benzoyl)-thiophen-2-ylcarbamoyl]-methylsulfanyl}-phenoxy)-acetic acid] |
| 100 to 1000 | CCc1cc(C(=O)c2ccc(OC(F)(F)F)cc2)c(NC(=O)C(CC)NCC(=O)O)s1 (centres unmarked) [Example 121, {1-[5-Ethyl-3-(4-trifluoromethoxy-benzoyl)-thiophen-2-ylcarbamoyl]-propylamino}-acetic acid] |
| < 100 | CCc1cc(C(=O)c2ccc(OC(F)(F)F)cc2)c(NC(=O)CN2[C@@H](CC)CC[C@@H]2C(=O)O)s1 [Example 183, (2R,5S)-5-Ethyl-1-{[5-ethyl-3-(4-trifluoromethoxy-benzoyl)-thiophen-2-ylcarbamoyl]-methyl}-pyrrolidine-2-carboxylic acid] |
| 1000 to 30000 | CCc1cc(C(=O)c2ccc(OC(F)(F)F)cc2)c(NC(=O)CN([C@@H](C)C(=O)O)S(C)(=O)=O)s1 [Example 126, (S)-2-({[5-Ethyl-3-(4-trifluoromethoxy-benzoyl)-thiophen-2-ylcarbamoyl]-methyl}-methanesulfonyl-amino)-propionic acid] |
| < 100 | CCc1cc(C(=O)c2ccc(OC(F)(F)F)cc2)c(NC(=O)CN(C)[C@@H](C)C(=O)O)s1 [Example 198, (S)-2-({[5-Ethyl-3-(4-trifluoromethoxy-benzoyl)-thiophen-2-ylcarbamoyl]-methyl}-methyl-amino)-propionic acid] |
| 1000 to 30000 | CCc1cc(C(=O)c2ccc(OC(F)(F)F)cc2)c(NC(=O)C2CCCN(CC(=O)O)C2)s1 (centres unmarked) [Example 176, {3-[5-Ethyl-3-(4-trifluoromethoxy-benzoyl)-thiophen-2-ylcarbamoyl]-piperidin-1-yl}-acetic acid] |
| 100 to 1000 | CCc1cc(C(=O)c2nc3cc(Cl)ccc3s2)c(NC(=O)CSCC(=O)O)s1 [Example 155, {[3-(5-Chloro-benzothiazole-2-carbonyl)-5-ethyl-thiophen-2-ylcarbamoyl]-methylsulfanyl}-acetic acid] |
| 1000 to 30000 | CCc1cc(C(=O)c2ccc(OC(F)(F)F)cc2)c(NC(=O)C2CCN(CC(=O)O)CC2)s1 [Example 177, {4-[5-Ethyl-3-(4-trifluoromethoxy-benzoyl)-thiophen-2-ylcarbamoyl]-piperidin-1-yl}-acetic acid] |
| < 100 | CCc1cc(C(=O)c2ccc(OC(F)(F)F)c(Cl)c2)c(NC(=O)CNC(C)(C)C(=O)O)s1 [Example 171, 2-({[3-(3-Chloro-4-trifluoromethoxy-benzoyl)-5-ethyl-thiophen-2-ylcarbamoyl]-methyl}-amino)-2-methyl-propionic acid] |
| < 100 | CCc1cc(C(=O)c2ccc(OC(F)(F)F)cc2)c(NC(=O)[C@H](C)SCC(=O)O)s1 [Example 195, {(S)-1-[5-Ethyl-3-(4-trifluoromethoxy-benzoyl)-thiophen-2-ylcarbamoyl]-ethylsulfanyl}-acetic acid] |
| < 100 | CCc1cc(C(=O)c2ccc(OC(F)(F)F)cc2)c(NC(=O)C(C)N2CCC[C@@H]2C(=O)O)s1 (stereo partly drawn) [Example 123, (R)-1-{1-[5-Ethyl-3-(4-trifluoromethoxy-benzoyl)-thiophen-2-ylcarbamoyl]-ethyl}-pyrrolidine-2-carboxylic acid] |
| 1000 to 30000 | CCc1cc(C(=O)c2ccc(F)cc2)c(NC(=O)CSc2ccc(OCC(=O)O)cc2)s1 [Example 135, (4-{[5-Ethyl-3-(4-fluoro-benzoyl)-thiophen-2-ylcarbamoyl]-methylsulfanyl}-phenoxy)-acetic acid] |
| 100 to 1000 | CCc1cc(C(=O)c2nc3ccc(Cl)cc3s2)c(NC(=O)CSCC(=O)O)s1 [Example 154, {[3-(6-Chloro-benzothiazole-2-carbonyl)-5-ethyl-thiophen-2-ylcarbamoyl]-methylsulfanyl}-acetic acid] |

Further lines, the compound ahead of its results:

| Compound | EC50 [nM] |
| --- | --- |
| CCc1cc(C(=O)c2ccc(OC(F)(F)F)cc2)c(NC(=O)C(SCC(=O)O)C(C)C)s1 (centres unmarked) [Example 114, {1-[5-Ethyl-3-(4-trifluoromethoxy-benzoyl)-thiophen-2-ylcarbamoyl]-2-methyl-propylsulfanyl}-acetic acid] | 100 to 1000 |
| CCc1cc(C(=O)c2ccc(OC(F)(F)F)cc2)c(NC(=O)CCCSCC(=O)O)s1 [Example 105, {3-[5-Ethyl-3-(4-trifluoromethoxy-benzoyl)-thiophen-2-ylcarbamoyl]-propylsulfanyl}-acetic acid] | 100 to 1000 |
| CCc1cc(C(=O)c2ccc(OC(F)(F)F)cc2)c(NC(=O)C(C)(C)N2CCC[C@@H]2C(=O)O)s1 [Example 119, (R)-1-{1-[5-Ethyl-3-(4-trifluoromethoxy-benzoyl)-thiophen-2-ylcarbamoyl]-1-methyl-ethyl}-pyrrolidine-2-carboxylic acid] | 100 to 1000 |
| CCc1cc(C(=O)c2ccc(OC(F)(F)F)cc2)c(NC(=O)C(CC)SC(C)C(=O)O)s1 (centres unmarked) [Example 110, 2-{1-[5-Ethyl-3-(4-trifluoromethoxy-benzoyl)-thiophen-2-ylcarbamoyl]-propylsulfanyl}-propionic acid] | < 100 |
